According to patent US20040052845A1, “Hydrogel-driven drug dosage form” (priority 2003, published 2004):
Where a name gives a salt, the structure may show the parent alone.

Assay: Aqueous solubility of the drug

solubility (at pH 7) [mg/mL] | Molecule | solubility (at pH 4) [mgA/mL]
– | 4-[3-[4-(2-methylimidazol-1-yl) phenylthio] phenyl]-3,4,5,6-tetrahydro-2H-pyran-4-carboxamide hemifumarate [Drug 3] | 3.7
0.2 | CN[C@H]1CC[C@@H](c2ccc(Cl)c(Cl)c2)c2ccccc21 [Drug 2, sertraline HCl] | –
